Earlier results as cited in patent US20100069356A1, “DIBENZO[…] DOPAMINE, ALPHA […], AND SEROTONIN RECEPTORS” (AUSPEX PHARMACEUTICALS, INC., priority 2008, published 2010).

Details: in vivo

OCCOCCN1CCN(C2=Nc3ccccc3Sc3ccccc32)CC1 [Quetiapine, 2-(2-(4-dibenzo[b,f][1,4]thiazepine-11-yl-1-piperazinyl)ethoxy)ethanol]
half-life: ~6 h
